Laboratory results: patent US8574556B2, “Antibacterial pharmaceutical composition comprising Aceriphyllum rossii extract and active compounds isolated therefrom” (Korea Research Institute of Bioscience and Biotechnology, priority 2008, dated 2013)
≈ marks a conversion by molar mass, not a printed value. Read-outs that look alike come from different tables or passages of the source.

How the values were obtained:
Assay type in all cases: cell-based
[1] = system: Propionibacterium acnes ATCC6919; test: Broth microdilution MIC, anaerobic RCMI liquid media
Description: Propionibacterium acnes was cultured in RCMI liquid media under anaerobic conditions, and the antibacterial activities were determined by a broth microdilution assay. The test strain was pre-cultured in liquid media at 37° C. for 1 to 2 days. 15 μl of test material dissolved in DMSO was added to 3 ml of broth to a concentration of 32 ppm. The sample was serially diluted 2-fold to prepare seven samples with different concentrations. The samples were added to the pre-cultured broth to a microbial concentration of 10^5-6 cfu/ml, and cultured for 1-3 days, followed by measurement of cell growth.
(§1) The antibacterial activity of Aceriphyllum rossii extract was determined with respect to Staphylococcus aureus, and the antibacterial activities of aceriphyllic acid A and 3-oxo-12-oleanen-27-oic acid were determined with respect to 15 different types of strains. Triclosan, oxacillin, and norfloxacin, which are commercially available antibiotics, were used for comparison.

[2] = system: cariogenic bacteria (Streptococcus mutans); test: Broth microdilution MIC, for cariogenic bacteria; conditions: Streptococcus mutans (text summary of Table 2)
Description: (§2) Test strains were cultured in a Mueller Hinton broth, and the antibacterial activities were determined by a broth microdilution assay. The test strains were grown to the mid-logarithmic phase, and diluted to a concentration of 10^5/ml with the same broth. 0.2 ml of the cells was added to each well of 96-well plates. The samples prepared in Examples 1 and 2 and Comparative Example 1 were serially diluted 2-fold, and added to the plates. The cells were incubated at 30° C. for 18 hrs, and cell growth was measured at 650 nm.
as §1

[3] = system: Acinetobacter calcoaceticus, Micrococcus luteus, and Bacillus subtilis; test: Broth microdilution MIC, text summary; conditions: range over Acinetobacter calcoaceticus, Micrococcus luteus and Bacillus subtilis (text summary of Table 2)
Description: as §2, §1

[4] = system: Staphylococcus aureus, methicillin-resistant S. aureus, and quinolone-resistant S. aureus; test: Broth microdilution MIC, summary over S. aureus strains; conditions: range over Staphylococcus aureus, MRSA and QRSA strains (text summary of Table 2)
Description: as §2, §1

[5] = system: Bacillus subtilis KCTC1021; test: Broth microdilution MIC
Description: as §2, §1

[6] = system: Streptococcus pneumoniae KCTC3932; test: Broth microdilution MIC
Description: as §2, §1

[7] = system: Staphylococcus aureus 503; test: Broth microdilution MIC
Description: as §2, §1

[8] = system: Staphylococcus aureus CCARM3506(MRSA); test: Broth microdilution MIC
Description: as §2, §1

[9] = system: Staphylococcus aureus CCARM3505(QRSA); test: Broth microdilution MIC
Description: as §2, §1

[10] = system: Streptococcus mutans KCTC3065; test: Broth microdilution MIC
Description: as §2, §1

[11] = system: Staphylococcus aureus KCTC1916; test: Broth microdilution MIC
Description: as §2, §1

[12] = system: Micrococcus luteus KCTC1056; test: Broth microdilution MIC
Description: as §2, §1

[13] = system: Staphylococcus aureus CCARM3519(QRSA); test: Broth microdilution MIC
Description: as §2, §1

[14] = system: Enterococcus faecium KCTC3122; test: Broth microdilution MIC
Description: as §2, §1

[15] = system: Acinetobacter calcoaceticus KCTC2357; test: Broth microdilution MIC
Description: as §2, §1

[16] = system: Staphylococcus aureus RN4220; test: Broth microdilution MIC
Description: as §2, §1

[17] = system: Streptococcus mutans KCTC3289; test: Broth microdilution MIC
Description: as §2, §1

[18] = system: Streptococcus mutans KCTC5248; test: Broth microdilution MIC
Description: as §2, §1

[19] = system: Staphylococcus aureus CCARM3167(MRSA); test: Broth microdilution MIC
Description: as §2, §1

[20] = Cutibacterium acnes, ATCC6919, Propionibacterium acnes (text summary of Table 2), read-out: MIC
[21] = Propionibacterium acnes ATCC6919
[22] = Staphylococcus aureus CCARM3506(MRSA), read-out: MIC
[23] = Staphylococcus aureus CCARM3505(QRSA), read-out: MIC
[24] = Staphylococcus aureus CCARM3519(QRSA), read-out: MIC
[25] = Staphylococcus aureus CCARM3167(MRSA), read-out: MIC

CC1(C)CC[C@]2(C)CC[C@@]3(C(=O)O)C(=CCC4[C@@]5(C)CCC(=O)C(C)(C)C5CC[C@]43C)C2C1 (stereo partly shown) [3-Oxo-12-oleanen-27-oic acid] showed an MIC [1, 20] of 2 µg/mL (≈ 4.4 µM), an MIC [1, 21] of 2 µg/mL (≈ 4.4 µM) and an MIC [2] of 4 µg/mL (≈ 8.8 µM). For the same compound, the MIC [3] was 1 to 2 µg/mL (≈ 2.2 to 4.4 µM), the MIC [4] was 2 to 8 µg/mL (≈ 4.4 to 17.6 µM) and the MIC ([5]; read-out: MIC) was 2 µg/mL (≈ 4.4 µM). It also gave an MIC ([6]; read-out: MIC) of 16 µg/mL (≈ 35.2 µM), an MIC ([7]; read-out: MIC) of 2 µg/mL (≈ 4.4 µM) and an MIC [8, 22] of 8 µg/mL (≈ 17.6 µM). It also gave an MIC [9, 23] of 8 µg/mL (≈ 17.6 µM), an MIC ([10]; read-out: MIC) of 4 µg/mL (≈ 8.8 µM) and an MIC ([11]; read-out: MIC) of 2 µg/mL (≈ 4.4 µM). It also gave an MIC ([12]; read-out: MIC) of 2 µg/mL (≈ 4.4 µM), an MIC [13, 24] of 8 µg/mL (≈ 17.6 µM) and an MIC ([14]; read-out: MIC) greater than 64 µg/mL. It also gave an MIC ([15]; read-out: MIC) of 2 µg/mL (≈ 4.4 µM), an MIC [16] of 4 µg/mL (≈ 8.8 µM) and an MIC ([17]; read-out: MIC) of 4 µg/mL (≈ 8.8 µM). It also gave an MIC ([18]; read-out: MIC) of 4 µg/mL (≈ 8.8 µM) and an MIC [19, 25] of 4 µg/mL (≈ 8.8 µM).
In the case of CC1(C)CC[C@]2(C)CC[C@@]3(C(=O)O)C(=CCC4[C@@]5(C)CC[C@@H](O)[C@@](C)(CO)C5CC[C@]43C)C2C1 (stereo partly shown) [Aceriphyllic acid A, Aceriphyllic Acid A], the MIC [1, 20] is reported as 2 µg/mL (≈ 4.23 µM), the MIC [1, 21] is reported as 2 µg/mL (≈ 4.23 µM) and the MIC [2] is reported as 2 to 4 µg/mL (≈ 4.23 to 8.46 µM). The MIC [3] was 1 to 2 µg/mL (≈ 2.12 to 4.23 µM), the MIC [4] was 2 to 4 µg/mL (≈ 4.23 to 8.46 µM) and the MIC ([5]; read-out: MIC) was 1 µg/mL (≈ 2.12 µM). It also gave an MIC ([6]; read-out: MIC) of 32 µg/mL (≈ 67.7 µM), an MIC ([7]; read-out: MIC) of 2 µg/mL (≈ 4.23 µM) and an MIC [8, 22] of 4 µg/mL (≈ 8.46 µM). For the same compound, the MIC [9, 23] was 4 µg/mL (≈ 8.46 µM), the MIC ([10]; read-out: MIC) was 2 µg/mL (≈ 4.23 µM) and the MIC ([11]; read-out: MIC) was 4 µg/mL (≈ 8.46 µM). The MIC ([12]; read-out: MIC) was 2 µg/mL (≈ 4.23 µM), the MIC [13, 24] was 4 µg/mL (≈ 8.46 µM) and the MIC ([14]; read-out: MIC) was 8 µg/mL (≈ 16.9 µM). The MIC ([15]; read-out: MIC) was 2 µg/mL (≈ 4.23 µM), the MIC [16] was 4 µg/mL (≈ 8.46 µM) and the MIC ([17]; read-out: MIC) was 4 µg/mL (≈ 8.46 µM). It also gave an MIC ([18]; read-out: MIC) of 2 µg/mL (≈ 4.23 µM) and an MIC [19, 25] of 4 µg/mL (≈ 8.46 µM).
CCn1cc(C(=O)O)c(=O)c2cc(F)c(N3CCNCC3)cc21 [Norfloxacin] was tested, and the MIC ([5]; read-out: MIC) was 0.25 µg/mL (≈ 0.783 µM), the MIC ([6]; read-out: MIC) was 2 µg/mL (≈ 6.26 µM) and the MIC ([7]; read-out: MIC) was 1 µg/mL (≈ 3.13 µM). The MIC [8, 22] was 1 µg/mL (≈ 3.13 µM), the MIC [9, 23] was 250 µg/mL (≈ 783 µM) and the MIC ([10]; read-out: MIC) was 8 µg/mL (≈ 25.1 µM). For the same compound, the MIC ([11]; read-out: MIC) was 0.25 µg/mL (≈ 0.783 µM), the MIC ([12]; read-out: MIC) was 2 µg/mL (≈ 6.26 µM) and the MIC [13, 24] was 125 µg/mL (≈ 391 µM). For the same compound, the MIC ([14]; read-out: MIC) was 8 µg/mL (≈ 25.1 µM), the MIC ([15]; read-out: MIC) was 0.25 µg/mL (≈ 0.783 µM) and the MIC [16] was 1 µg/mL (≈ 3.13 µM). It also gave an MIC ([17]; read-out: MIC) of 8 µg/mL (≈ 25.1 µM), an MIC ([18]; read-out: MIC) of 8 µg/mL (≈ 25.1 µM) and an MIC [19, 25] of 8 µg/mL (≈ 25.1 µM).
Work on Cc1onc(-c2ccccc2)c1C(=O)N[C@@H]1C(=O)N2[C@@H]1SC(C)(C)[C@@H]2C(=O)O [Oxacillin] yielded an MIC ([5]; read-out: MIC) of 0.25 µg/mL (≈ 0.623 µM), an MIC ([6]; read-out: MIC) of 2 µg/mL (≈ 4.98 µM) and an MIC ([7]; read-out: MIC) of 0.25 µg/mL (≈ 0.623 µM). It also gave an MIC [8, 22] of 500 µg/mL (≈ 1250 µM), an MIC [9, 23] of 0.5 µg/mL (≈ 1.25 µM) and an MIC ([10]; read-out: MIC) of 0.06 µg/mL (≈ 0.149 µM). The MIC ([11]; read-out: MIC) was 0.25 µg/mL (≈ 0.623 µM), the MIC ([12]; read-out: MIC) was 8 µg/mL (≈ 19.9 µM) and the MIC [13, 24] was 0.5 µg/mL (≈ 1.25 µM). For the same compound, the MIC ([14]; read-out: MIC) was 2 µg/mL (≈ 4.98 µM), the MIC ([15]; read-out: MIC) was 0.125 µg/mL (≈ 0.311 µM) and the MIC [16] was 0.25 µg/mL (≈ 0.623 µM). For the same compound, the MIC ([17]; read-out: MIC) was 0.06 µg/mL (≈ 0.149 µM), the MIC ([18]; read-out: MIC) was 0.06 µg/mL (≈ 0.149 µM) and the MIC [19, 25] was 500 µg/mL (≈ 1250 µM).
Oc1cc(Cl)ccc1Oc1ccc(Cl)cc1Cl [Triclosan] was tested, and the MIC [5] was 0.003 µg/mL (≈ 0.0104 µM), the MIC [6] was 32 µg/mL (≈ 111 µM) and the MIC [7] was 0.006 µg/mL (≈ 0.0207 µM). It also gave an MIC ([8]; Staphylococcus aureus) of 0.006 µg/mL (≈ 0.0207 µM), an MIC ([9]; Staphylococcus aureus, CCARM3505) of 0.006 µg/mL (≈ 0.0207 µM) and an MIC [10] of 1 µg/mL (≈ 3.45 µM). For the same compound, the MIC [11] was 0.006 µg/mL (≈ 0.0207 µM), the MIC [12] was 1 µg/mL (≈ 3.45 µM) and the MIC ([13]; Staphylococcus aureus, CCARM3519) was 0.006 µg/mL (≈ 0.0207 µM). The MIC [14] was 4 µg/mL (≈ 13.8 µM), the MIC [15] was 0.003 µg/mL (≈ 0.0104 µM) and the MIC [16] was 0.006 µg/mL (≈ 0.0207 µM). It also gave an MIC [17] of 1 µg/mL (≈ 3.45 µM), an MIC [18] of 1 µg/mL (≈ 3.45 µM) and an MIC ([19]; Staphylococcus aureus) of 0.006 µg/mL (≈ 0.0207 µM).
